How the values were obtained:
[1] = Quantum yield determination of nucleotide derivatives; type: physicochemical; details: for Quantum yield of reference compounds determined with this protocol: in H2O; for Q.Y.: in water
Method: Nucleotide derivatives were serially diluted in H2O (10, 20, 30, 40 and 50 μM for absorbance measurements, and 0.2, 0.4, 0.6, 0.8, 1 μM for fluorescence measurements), and UV absorbance and fluorescence emission (with λmax absorbance=λem fluorescence) were recorded for all samples. To determine quantum yields, for each absorbance and fluorescence spectrum the area under the curve (AUC) was calculated by numerical integration, applying the mid-point rule. For each compound, AUCabs and AUCem were then plotted over compound concentration according to AUCabs=A×[conc]+B and AUCem=A′×[conc]+B′. From these linear plots, the gradients A and A′ were extracted, and for each compound the specific quantum yield φs, under these experimental conditions, was calculated as the ratio A′/A. Quantum yields determined with this protocol for two reference compounds, 2-aminopyridine and L-tryptophan (2-aminopyridine: 0.60; L-tryptophan: 0.14) were in exact agreement with literature values. The quantum yields for reference compounds were used to calculate the general quantum yield φg for each nucleotide analogue, according to φg=φref×(A′/A)/(A′/A)ref.
Fluorescent uracil nucleosides and (sugar-)nucleotides can be obtained by connecting a known chromophore/fluorophore via an electronically nonconjugating linker to the natural uracil base (Sinkeldam et al. Chem. Rev. 2010, 110, 2579-2619). The photophysical features of the resulting nucleoside/(sugar-)nucleotide analogue are usually very similar to that of the parent fluorophore (Sinkeldam et al. Chem. Rev. 2010, 110, 2579-2619). In contrast, extending the uracil by electronically conjugating the base to additional aromatic moieties typically generates a new chromophore with unique, and somewhat unpredictable, photophysical characteristics (Sinkeldam et al. Chem. Rev. 2010, 110, 2579-2619). To precisely measure the intensity of the fluorescence emitted by the brightest fluorophores described above, we determined their quantum yield. These measurements were performed in water following the procedure reported by Nighswander-Remper and the results are shown in Table B below. Quantum yield determinations confirmed that 2p and 2q display the highest fluorescence and are 10-fold brighter than any other nucleotide analogues with a compact aryl- or heteroaryl substituent in position 5 that have been reported to date (Sinkeldam et al. Chem. Rev. 2010, 110, 2579-2619). That 2p and 2q absorb and fluoresce at long wavelength is an attractive feature, which makes these fluorophores suitable for analyses in biological environments. Additionally, we found the intensity of the fluorescence emission is conserved for UDP and UTP analogues, thereby providing attractive fluorescence probes candidates for fluorimetric assays.

[2] = Lakowicz, Principles of Fluorescence Spectroscopy; cited from earlier work
[3] = Absorbance and fluorescence spectra of 5-R-UMP analogues; type: physicochemical; details: for λmax: absorbance; for Emmax: fluorescence emission
Method: UV absorbance spectra were recorded on a PerkinElmer Lambda 25 UV-Vis spectrometer at ambient temperature in FarUV quartz cells (path length 1.0 cm). Fluorescence spectra were recorded on a PerkinElmer LS-45 spectrometer at ambient temperature in a quartz micro fluorescence cell (path length 1.0 cm).

Ggta1 = biological target: T1, Ggta1 (Bos taurus, UniProt P14769); assay: Variation in fluorescence of 3d and analogues upon incubation with Ggta1; type: binding, B. taurus; details: various concentrations of Ggta1
T1 construct: made in house
T1 sequence (P14769 whole entry): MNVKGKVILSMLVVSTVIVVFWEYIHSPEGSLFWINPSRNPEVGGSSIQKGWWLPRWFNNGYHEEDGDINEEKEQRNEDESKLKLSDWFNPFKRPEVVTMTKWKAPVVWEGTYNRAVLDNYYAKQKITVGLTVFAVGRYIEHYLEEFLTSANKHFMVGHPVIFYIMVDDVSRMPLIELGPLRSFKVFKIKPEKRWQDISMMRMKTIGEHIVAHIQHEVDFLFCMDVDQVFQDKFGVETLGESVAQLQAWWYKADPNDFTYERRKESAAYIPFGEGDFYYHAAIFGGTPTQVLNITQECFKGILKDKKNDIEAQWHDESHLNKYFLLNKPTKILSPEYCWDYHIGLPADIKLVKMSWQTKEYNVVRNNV
Method: (§1) Fluorescence intensity measurements with 3d were carried out in black NUNC F96 MicroWell polystyrene plates on a BMG labtech PolarStar microplate reader equipped with a 350±5 nm excitation filter and a 430±5 nm emission filter. The number of flashes per wells was set to 50 (gain: 2240; position delay: 0.2 s). Prior to readings, plates were incubated, with shaking, for 10 min at 30° C. (double orbital, shaking width 4 mm, 10 seconds). Results were visualised with BMG labtech data analysis software Mars 1.10 and analysed with GraFit version 5.0.10.
(§2) Samples were pipetted into the requisite wells of a black NUNC 96-well plate as shown in tables E1-E3, at the end of the description. Key: B—Tris/HCl buffer (50 mM, pH 7; 40 μL); F—fluorophore 3d (200 nM in Tris/HCl buffer; 40 μL); M—MnCl2 (10 mM in Tris/HCl buffer; […]); E—galactosyltransferase (in Tris/HCl buffer; 40 μL); I—inhibitor (in Tris/HCl buffer; 40 μL). Total volume/well: 200 μL. All experiments were carried out in triplicate, unless indicated otherwise.
We also carried out an experiment on 3d (numbered 18e in FIG. 4) and different analogues of 3d, namely the nucleoside 5h, the nucleotide 6r and nucleoside diphosphate 22d, to show their variation in fluorescence on binding to Ggta1.
The synthesis of 5h, 6r and 22d are shown below. The protocol for the microplate/fluorescence experiments was the same as in Example 2.

[4] = Influence of microenvironment (solvent) on fluorescence of 2q′; type: physicochemical
Method: Fluorescence intensity measurements were performed in NUNC F96 MicroWell polystyrene plates on a BMG labtech PolarStar plate reader equipped with a 350±5 nm absorbance filter and with a 430±5 nm emission filter. 10 μM solutions of 2q′ were prepared in HPLC grade water, acetonitrile and isopropanol. Sample assays with various solvent mixtures were incubated during 2 minutes at 30° C. prior to fluorescence measurement. Data were analysed with the help of GraFit version 5.0.10.
After identifying intense 5-arylated UMP fluorophores and understanding the origin of their fluorescence we investigated the influence of the microenvironment on the fluorescence signal. In order to generate a variety of microenvironments, we prepared 200 nM solutions of 5-(5-formyl-2-thiophene)-uridine 2q′ (the nucleoside analogue of 2q) in solvents varying in polarity index: (P): water (P=9), acetonitrile (MeCN, P=5.8) and isopropanol (IPA, P=3.9). We subsequently recorded absorbance and fluorescence signals for these three solutions (see FIG. 6).

[5] = Quantum yield determination of UDP-Gal derivatives 3a-d; type: physicochemical; details: in H2O
Method: To determine quantum yields, for each absorbance and fluorescence spectrum the area under the curve (AUC) was calculated by numerical integration, applying the mid-point rule. For each compound, AUCabs and AUCfluo were then plotted over compound concentration according to AUCabs=A×[conc]+B (equation 1) and AUCfluo=A′×[conc]+B′ (equation 2). […] The quantum yields for reference compounds were used to calculate the general quantum yield φg for each compound 3a-d, according to φg=φref×(A′/A)/(A′/A)ref.

B. taurus α-1,3-GalT [6] = biological target: T2, B. taurus α-1,3-GalT (Bos taurus, UniProt P14769); assay: Donor kinetics of UDP-Gal derivatives with GalT, HPLC; type: biochemical; details: MnCl2 20 mM, MOPS pH 7.2, 37° C.
T2 construct: made in house
T2 sequence (P14769 whole entry): as above
Method: J. Am. Chem. Soc. 122, 261-1269 (2000); Rich, J. R.; Szpacenko, A.; Palcic, M. M. & Bundle, D. R. Glycosyltransferase-Catalyzed Synthesis of Thiooligosaccharides. Angew. Chem. Int. Ed. […] ChemBioChem 9, 1632-1640 (2008). […] (total volume 100 μL, all concentrations are final concentrations). The reactions were stopped by cooling in dry ice. Samples were analysed immediately by HPLC on a PerkinElmer Series 200 machine equipped with a Supelcosil LC-18-T column (5 μm, 25 cm×4.6 mm), a column oven (set to 30° C.), and a diode array detector. Each sample (injection volume 40 μL) was eluted at 1.5 mL/min with a gradient of methanol (10-30%) against 0.5 M phosphate buffer (adjusted to pH 8 with triethylamine). […] Km and vmax values were determined by fitting data points to a Michaelis-Menten curve using GraFit 5.0.10.

B. taurus α-1,3-GalT [7] = biological target: T2, B. taurus α-1,3-GalT; assay: Microplate fluorescence titration / ligand-displacement assay with fluorophore 3d; type: binding; details: 3d and α-1.3-GalT present
Method: The fluorescence emission of a given fluorophore is influenced by its microenvironment, although different fluorophores vary their fluorescence emissions to different extents on changing microenvironment.
as §1, §2

a-1.4-GalT = assay: Titration of C-glycosidic fluorophore 2 with GalT and competition with ligands; type: binding

| SMILES | Q.Y. [1] | Fluo Intensity at 100 μM [3] | λmax [3] | Emmax [3] | other results |
| --- | --- | --- | --- | --- | --- |
| Nc1ccccn1 [2-aminopyridine, reference compound] | – | – | – | – | Quantum yield of reference compounds determined with this protocol [1]: 0.60; Quantum yield, literature values of reference compounds [2]: 0.60 |
| O=c1[nH]c(=O)n([C@@H]2O[C@H](COP(=O)(O)O)[C@@H](O)[C@H]2O)cc1-c1ccc(Cl)cc1 [2b, 5-(4-Chlorophenyl)-uridine-5′-monophosphate] | 0.001 | 78 a.u. | 281 nm | 398 nm | – |
| COc1ccc(-c2cn([C@@H]3O[C@H](COP(=O)(O)O)[C@@H](O)[C@H]3O)c(=O)[nH]c2=O)cc1 [2l, 5-(4-Methoxyphenyl)-uridine-5′-monophosphate] | 0.02 | 603 a.u. | 279 nm | 444 nm | – |
| O=c1[nH]c(=O)n([C@@H]2O[C@H](COP(=O)(O)O)[C@@H](O)[C@H]2O)cc1-c1ccco1 [2m, 5-(Furan-2-yl)-uridine-5′-monophosphate] | 0.04 | 497 a.u. | 314 nm | 437 nm | – |
| O=Cc1ccc(-c2cn([C@@H]3O[C@H](COP(=O)(O)O)[C@@H](O)[C@H]3O)c(=O)[nH]c2=O)o1 [2n] | 0.04 | 640 a.u. | 348 nm | 431 nm | – |
| O=Cc1ccsc1-c1cn([C@@H]2O[C@H](COP(=O)(O)O)[C@@H](O)[C@H]2O)c(=O)[nH]c1=O [2o, 5-(3-Formylthien-2-yl)-uridine-5′-monophosphate] | 0.02 | 387 a.u. | 267 nm | 453 nm | – |
| CC(=O)c1ccc(-c2cn([C@@H]3O[C@H](COP(=O)(O)O)[C@@H](O)[C@H]3O)c(=O)[nH]c2=O)s1 [2p, 5-(5-Acetylthien-2-yl)-uridine-5′-monophosphate] | 0.24 | >650 a.u. | 348 nm | 433 nm | Brightness relative to any other reported 5-aryl/heteroaryl nucleotide analogues [1]: 10 fold |
| O=Cc1ccc(-c2cn([C@@H]3O[C@H](COP(=O)(O)O)[C@@H](O)[C@H]3O)c(=O)[nH]c2=O)s1 [2q, 5-(5-Formylthien-2-yl)-uridine-5′-monophosphate] | 0.26 | >650 a.u. | 351 nm | 434 nm | Variation in fluorescence on binding to Ggta1 (Ggta1): varied their intensity of luminescence with Ggta1; Brightness relative to any other reported 5-aryl/heteroaryl nucleotide analogues [1]: 10 fold |
| O=Cc1ccc(-c2cn([C@@H]3O[C@H](CO)[C@@H](O)[C@H]3O)c(=O)[nH]c2=O)s1 [2q′, 5-(5-Formylthien-2-yl)-uridine] | – | – | – | – | Fluorescence in water relative to MeCN ([4]; 200 nM solutions): 20 fold; Absorbance on change of solvent ([4]; water, MeCN, IPA): unaffected by a change in microenvironment |
| O=c1[nH]c(=O)n([C@@H]2O[C@H](COP(=O)(O)OP(=O)(O)O[C@H]3O[C@H](CO)[C@H](O)[C@H](O)[C@H]3O)[C@@H](O)[C@H]2O)cc1-c1ccccc1 [3a, 5-Phenyl UDP-α-D-galactose] | – | – | – | – | Quantum yield [5]: <0.01; Km (B. taurus α-1,3-GalT [6]): 96 ± 8 µM; kcat (B. taurus α-1,3-GalT [6]): 0.0021 s⁻¹ |
| COc1ccc(-c2cn([C@@H]3O[C@H](COP(=O)(O)OP(=O)(O)O[C@H]4O[C@H](CO)[C@H](O)[C@H](O)[C@H]4O)[C@@H](O)[C@H]3O)c(=O)[nH]c2=O)cc1 [3b, 5-(4-Methoxyphenyl)-UDP-α-D-galactose] | – | – | – | – | Quantum yield [5]: 0.024; Km (B. taurus α-1,3-GalT [6]): 82 ± 11 µM; kcat (B. taurus α-1,3-GalT [6]): 0.004 s⁻¹ |
| O=c1[nH]c(=O)n([C@@H]2O[C@H](COP(=O)(O)OP(=O)(O)O[C@H]3O[C@H](CO)[C@H](O)[C@H](O)[C@H]3O)[C@@H](O)[C@H]2O)cc1-c1ccco1 [3c, 5-(2-Furyl)-UDP-α-D-galactose] | – | – | – | – | Quantum yield [5]: 0.04; Km (B. taurus α-1,3-GalT [6]): 69 ± 13 µM; kcat (B. taurus α-1,3-GalT [6]): 0.0044 s⁻¹ |
| O=Cc1ccc(-c2cn([C@@H]3O[C@H](COP(=O)(O)OP(=O)(O)O)[C@@H](O)[C@H]3O)c(=O)[nH]c2=O)s1 [22d, 5-(5-Formylthien-2-yl)-UDP] | – | – | – | – | Variation in fluorescence on binding to Ggta1 (Ggta1): varied their intensity of luminescence with Ggta1 |
| N[C@@H](Cc1c[nH]c2ccccc12)C(=O)O [L-tryptophan, reference compound] | – | – | – | – | Quantum yield of reference compounds determined with this protocol [1]: 0.14; Quantum yield, literature values of reference compounds [2]: 0.14 |
| O=c1ccn([C@@H]2O[C@H](COP(=O)(O)OP(=O)(O)O)[C@@H](O)[C@H]2O)c(=O)[nH]1 [UDP, reference compound] | – | – | – | – | Fluorescence of 3d upon titration with competitive ligand (B. taurus α-1,3-GalT [7]): restored; Reversal of fluorescence quenching of 2 by titration with ligand (a-1.4-GalT): reversed |
| O=c1ccn([C@@H]2O[C@H](COP(=O)(O)O)[C@@H](O)[C@H]2O)c(=O)[nH]1 [UMP, reference compound] | 5e-05 | – | 262 nm | – | Reversal of fluorescence quenching of 2 by titration with ligand (a-1.4-GalT): to a lesser extent |
